{"source": "paper PMC10755736", "about": "“Modulating Liquid–Liquid Phase Separation of Nck Adaptor Protein against Enteropathogenic Escherichia coli Infection” (ACS Central Science, 2023)", "key": {"[1]": {"tested_on": "EPEC infection of Caco-2 cells", "assay": "EPEC infection assay of Caco-2 cells (CFU counts)", "assay_type": "cell-based, enteropathogenic Escherichia coli", "conditions": "L17E 40 μM", "description": "Lastly, to examine whether pretreatment of Caco-2 cells with L17E/p1 could prevent EPEC infection, we first established a bacterial infection assay (Figure 7a). Caco-2 cells were pretreated with L17E/p1 for 2 h. After excess peptides were removed, Caco-2 cells were then infected with EPEC at different multiplicity of infection (MOI) values (MOI is commonly defined as the ratio of infectious bacteria to cells in a culture) for 3 h, and extra bacterial cells were removed from the culture. Next, gentamicin was added to the cell culture to remove EPEC that are merely attached to the surface of Caco-2 cells, leaving only engulfed EPEC inside Caco2 cells to be counted (gentamicin treatment will not kill intracellular bacteria due to its cellular impermeability). After gentamicin was washed away, cells were lysed to release EPEC cells inside, and the cell lysates were diluted to count the number of EPEC cells as colony-forming units (cfu) on agar plates.\nCaco-2 cells were seeded in a 24-well plate at a density of 1×10^4 cells for 24 h and pretreated with peptide complexes for 2 h. After washing with DMEM, cells were infected with EPEC at selected MOI values for 3 h at 37 ℃. Cells were then treated with gentamicin ([…]) for 2 h and lysed with 1% […]\nTriton X-100 for 15 min. […]\nThe sample was loaded onto 12% SDS/PAGE glycerol gel and then transferred onto a PVDF membrane using Bio-Rad […]. The membrane was blocked and incubated with a rabbit anti-Nck antibody (Abcam, Hong Kong) at 4 °C overnight, followed by a n anti -rabbit HRP -labeled secondary antibody (Abcam, Hong Kong).\nSPSS 23.0 statistical software was used to process experimental data. The differences between mean ± SEM of three independent experiments were assessed by Student's t -test."}, "Nck": {"target": "T1, Nck (Homo sapiens, UniProt P16333)", "T1 construct": "GST (followed by PreScission/HRV 3C site) (N, cleaved yes); made in house; host or cells: E. coli BL21(DE3)", "assay": "Crosslinking of peptides with recombinant Nck in vitro (SDS-PAGE, Western blotting)", "assay_type": "binding", "conditions": "PBS, 1 h", "from_the_text": "Although peptide Y474 can block Nck-mediated LLPS, the requirement of a high concentration of the blocker peptide is hard to achieve inside the cell. […] The side chains of the Nck lysine residues are pointing toward the residues at pY+1 and pY+2 positions with distances of only 4 to 6 Å. This unique feature gives us an opportunity to design covalent blockers for Nck-SH2 by installing electrophiles at the pY+1 or pY+2 positions to enable a proximal conjugation reaction with one of the lysine residues. Covalent blockage through the characteristic lysine residues will maximize the specificity of the inhibitor toward Nck-SH2. As sulfonyl fluoride has been reported to react with proteinaceous nucleophiles such as lysine, histidine, or cysteine,[34] we installed a sulfonyl fluoride group on the side chain of diaminopropionic acid, giving an unnatural amino acid X1 at different positions such as pY+1 (Asp6) and pY+3 (Val8) of peptide EEHIpYDEVAAD. Besides the amino acid X1, we also included α-chloroacetyl-carrying amino acids X2 and X3, which may also react with proteineous nucleophiles. Electrophile-containing reactive peptides p1 to p11 were synthesized with a biotin tag at the N-termini (Figure 4b). After the reactive peptides were incubated with recombinant Nck protein at a 5:1 ratio at 37 °C in PBS for 1 h, the formation of covalently linked Nck–peptide conjugates could be observed, shown as new protein bands with molecular weights higher than that of Nck based on denatured SDS-PAGE and Western blotting analysis against biotin (Figure 4c). […] At 37 °C in PBS buffer, the 1:1 reaction efficiency reached 50% in 2 min (Figure S4 in the Supporting Information).\nFigure 4 Covalently reactive peptides designed based on a Tir peptide. (a) Crystal structure of Nck-SH2 in complex with a peptide EEHIpYDEVAAD from EPEC protein Tir (PDB: 2CI9). (b) List of synthetic reactive peptides. (c) Unnatural amino acids in the peptides. (d) SDS-PAGE (top) and Western blotting (bottom) analyses showing covalent conjugation of the peptides with Nck. […]"}}, "note": "Entries after “also recorded” stand apart in the source; their conditions may differ. Non-standard residues stand in square brackets, D forms with d. Residues, ends and D or L forms follow the SMILES beside them. *: point of attachment. Biotin = O=C1N[C@H]2[C@H](CS[C@H]2CCCCC(=O)*)N1; Benzoyl(4-SO2F) = O=C(c1ccc(S(=O)(=O)F)cc1)*; pY = N[C@@H](Cc1ccc(OP(=O)(O)O)cc1)C(=O)O; Dap = NC[C@H](N)C(=O)O"}
{"smiles": "CC[C@H](C)[C@H](NC(=O)[C@H](Cc1c[nH]cn1)NC(=O)[C@H](CCC(=O)O)NC(=O)[C@H](CCC(=O)O)NC(=O)CCCC[C@@H]1SC[C@@H]2NC(=O)N[C@@H]21)C(=O)N[C@@H](Cc1ccc(OP(=O)(O)O)cc1)C(=O)N[C@@H](CNC(=O)c1ccc(S(=O)(=O)F)cc1)C(=O)N[C@@H](CCC(=O)O)C(=O)N[C@H](C(=O)N[C@@H](C)C(=O)N[C@@H](C)C(=O)N[C@@H](CC(=O)O)C(N)=O)C(C)C", "note": "[p1] (Biotin-EEHI[pY][Dap](Benzoyl(4-SO2F))EVAAD-NH2; N-terminus and C-terminus assumed)", "values": [{"measurement": "efficacy compared with Y474 in anti-infection assay", "setting": "[1]; p1 vs Y474 at lower concentrations", "result": "significantly higher efficacy than Y474 at lower concentrations"}, {"measurement": "blockage of EPEC invasion/infection of Caco-2 cells", "setting": "[1]; with L17E-mediated delivery", "result": "rendered Caco-2 cells resistant to EPEC infection; also recorded: can block EPEC invasion to Caco-2 cells"}, {"measurement": "number of Nck–peptide conjugate bands", "setting": "Nck; p1:Nck 5:1, 37 °C, SDS-PAGE", "result": "only one Nck–peptide conjugate band"}, {"measurement": "reactivity with Nck", "setting": "Nck; peptide:Nck 5:1, 37 °C, SDS-PAGE and anti-biotin Western blotting", "result": "highest cross-linking efficiency with Nck; also recorded: noticeable reactivity"}]}
